Data as given in patent publication US10004683B2, “Antimicrobial formulations” (Common Pharma, Inc., priority 2015, dated 2018).

System: New Zealand White Rabbits
Assay: Dermal irritation test, ISO 10993-10:2010
Conditions: rabbits inspected at 1, 24, 48 and 72 hours; scale 0 to 0.4 Negligible, 0.5 to 1.9 Slight, 2 to 4.9 Moderate, 5 to 8 Severe
Method: The test was performed according to ISO 10993-10:2010. The test sample was 2% Noveon and 2% boric acid in water. A placebo was also tested which was only 2% Noveon in water. All testing was under GLP conditions. A negative control was used which was 0.9% Sodium Chloride for Injection, USP and a positive control was used which was 20% W/V of sodium dodecyl sulfate (SDS) in water.
The test animals were inspected at times 1, 24, 48 and 72 hours.

In the case of `CCCCCCCCCCCCOS(=O)(=O)[O-].[Na+]` [positive control, sodium dodecyl sulfate], the “dermal irritation observational rankings” value is reported as 2-4.
